This note sets out measurements from patent US20240150346A1, “CLASS OF HETEROAROMATIC COMPOUND, PREPARATION METHOD THEREFOR AND USE THEREOF” (INNOVSTONE THERAPEUTICS LIMITED, priority 2021, published 2024).

SMILES strings stand for the structures. Bounds are passed on as bounds.

In the test the target is T1, human-derived receptor TLR7 (Homo sapiens, UniProt Q9NYK1).
T1 construct: host or cells: HEK-Blue hTLR7 cells (HEK293-derived reporter line)
T1 sequence (Q9NYK1 27-1049): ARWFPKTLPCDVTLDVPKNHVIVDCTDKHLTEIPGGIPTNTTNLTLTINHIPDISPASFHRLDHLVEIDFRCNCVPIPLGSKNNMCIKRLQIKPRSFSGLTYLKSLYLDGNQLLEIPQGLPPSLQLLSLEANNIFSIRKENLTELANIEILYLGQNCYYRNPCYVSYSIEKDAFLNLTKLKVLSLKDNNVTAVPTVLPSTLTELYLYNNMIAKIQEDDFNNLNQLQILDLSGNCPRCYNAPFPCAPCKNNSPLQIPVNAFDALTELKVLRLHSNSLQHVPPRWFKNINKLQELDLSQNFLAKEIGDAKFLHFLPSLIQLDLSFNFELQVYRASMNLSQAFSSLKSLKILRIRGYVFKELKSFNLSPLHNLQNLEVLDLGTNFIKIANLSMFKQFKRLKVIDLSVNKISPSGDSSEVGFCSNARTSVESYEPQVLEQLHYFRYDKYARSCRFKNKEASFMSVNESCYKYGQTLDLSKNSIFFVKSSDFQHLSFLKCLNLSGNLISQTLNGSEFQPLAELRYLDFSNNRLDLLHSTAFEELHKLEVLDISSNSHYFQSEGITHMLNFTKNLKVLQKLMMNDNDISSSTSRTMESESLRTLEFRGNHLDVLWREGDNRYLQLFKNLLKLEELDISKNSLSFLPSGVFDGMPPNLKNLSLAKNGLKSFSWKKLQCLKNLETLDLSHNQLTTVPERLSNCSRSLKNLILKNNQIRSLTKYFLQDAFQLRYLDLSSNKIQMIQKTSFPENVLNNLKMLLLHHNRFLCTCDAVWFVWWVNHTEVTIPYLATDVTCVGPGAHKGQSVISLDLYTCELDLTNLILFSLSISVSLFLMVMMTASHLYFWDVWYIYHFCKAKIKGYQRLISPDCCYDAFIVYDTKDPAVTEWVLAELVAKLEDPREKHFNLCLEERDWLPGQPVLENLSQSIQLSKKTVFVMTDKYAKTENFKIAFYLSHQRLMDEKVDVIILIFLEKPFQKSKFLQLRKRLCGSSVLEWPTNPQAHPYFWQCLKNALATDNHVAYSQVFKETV
Briefly: Assay on agonistic activity for human-derived receptor TLR7 (HEK-Blue hTLR7 cells, HEK-Blue Detection Medium). The test is classed as cell-based. The following applies: 16 h incubation, absorbance at 655 nm, read-out: EC50. On the procedure: HEK-Blue™ hTLR7 cells (InvivoGen, hkb-htlr7) were cultured in a DMEM complete medium (Gibco, 12100) containing 10% FBS (Invitrogen, 10099141), 1% P/S (Invitrogen, 15140122), 10 μg/mL Blasticidin (InvivoGen, ant-bl-1), 100 μg/mL Zeocin (InvivoGen, ant-zn-1), and 100 μg/mL Normocin (InvivoGen, ant-nr-1). The cells were cultured in an incubator at 37° C. with 5% CO2. When HEK-Blue™ hTLR7 cells reached a growth density of 70%-80%, cell passage was needed.
The agonistic activity for the human-derived receptor TLR7 by HEK-Blue™ hTLR7 cells was assayed by HEK-Blue™ Detection Medium (InvivoGen, hd-det2). First, a bag of HEK-Blue™ Detection Medium powder was dissolved in 50 mL of ultra-pure sterile water for complete dissolution, and then the dissolved medium was filtered into a new 50 mL centrifuge tube through a 0.22 μm filter. Finally, antibiotics were added into the filtered detection medium until the final concentration was 1% for P/S and 100 μg/mL for Normocin. HEK-Blue™ Detection Medium was pre-heated to 37° C. in advance on the day of the assay on the activity for the TLR7 receptor, and the temperature was always maintained at 37° C.
The compound powder was dissolved in 100% DMSO (Sigma, D2650-100ML) to obtain a 10 mM stock solution, and the compound was completely dissolved by shaking with an oscillator. The stock solution of the compound was subjected to a 5-fold dilution to 2 mM with 100% DMSO. This was followed by a 3-fold serial dilution for a total of 8 concentration gradients. Then, each of the concentration gradients was subjected to a 20-fold dilution to 100 μM, 33.3 μM, 11.1 μM, 3.7 μM, 1.23 μM, […], 0.114 μM, and 0.05 μM using HEK-Blue™ Detection Medium. 20 μL of each of the dilutions was added to a 96-well cell culture plate (Corning, 3599).
On the day of the assay on the agonistic activity for the human-detived receptor TLR7, HEK-Blue™ hTLR7 cells has a growth density of 70%-80%, and the cell medium was removed. 1 mL of cell dissociation buffer (Gibco, 13151-014) was added to each 100 mm cell culture dish, and the cells were incubated in an incubator at 37° C. for 5 min. The cells were pipetted using a DMEM cell medium to obtain a single cell suspension, which was then centrifuged at 1000 rpm for 10 min to collect the cell pellet. The cell pellet was resuspended with HEK-Blue™ Detection Medium pre heated to 37° C. The cells were counted and diluted to 220,000 cells/mL. Finally, 180 μL of cell suspension (40,000 cells/well) was added to each well of the 96-well cell culture plate to which the compound had been added, and the cell suspension was mixed with the compound using a pipettor. Final concentrations of the compound were 10 μM, 3.3 μM, 1.1 μM, 0.37 μM, 0.12 μM, 0.04 μM, 0.01 μM, and 0.005 μM. After incubation in an incubator at 37° C. for 16 h, the absorbance was read at 655 nm using an M5e microplate reader (MD, USA).
The EC50 of the compound was calculated using the software GraphPad Prism (GraphPad Software, USA). The background reading of the detection culture was subtracted from the absorbance readings at 655 nm of all wells of the 96-well plate, the ratio of each well to the negative control well (the well without the compound) was calculated, and then the percentage of the ratio of each well to the positive control well (the well treated with 10 μM positive compound), i.e., the percentage of activity, was calculated. Finally, the sigmoidal dose-response (variable slope) curve between the percentage of activity and the concentration of the compound was calculated using the software GraphPad Prism to calculate the EC50 of the compound. […]

By EC50 is commonly meant the concentration at which the effect is half-maximal. As to `CSc1nc2c(N)nc3ccccc3c2n1Cc1ccc(-c2cnn(CCNC3CCC3)c2)cc1` [Example 196], the EC50 is 50 to 100 nM.
In the case of `CCCCOc1nc(N)c2[nH]c(=O)n(Cc3ccc(CN4CCNCC4)s3)c2n1` [Example 46], the EC50 is less than 50 nM.
Consider `C=CCSc1nc2c(N)nc3ccccc3c2n1Cc1ccc(CN2CCCC2)cc1` [Example 166], for which the EC50 was less than 50 nM.
On to `CCCCOc1nc(N)c2[nH]c(=O)n(Cc3ccc(CN4CCC(N)C4)s3)c2n1` (stereo not drawn) [Example 49, 6-amino-9-((5-((3-aminopyrrolidin-1-yl)methyl)thien-2-yl)methyl)-2-butoxy-7,9-dihydro-8H-purin-8-one], for which the EC50 was less than 50 nM.
Under `CCCCOc1nc(N)c2c(n1)CN(Cc1ccc(CN3CCCC3)c(C)c1)C(=O)N2` [Example 66] stands 50 to 100 nM; under `CCCCOc1nc(N)c2c(n1)CN(Cc1ccc(C)c(CN3CCCC3)c1)C(=O)N2` [Example 78], less than 50 nM; under `CCCCOc1nc(N)c2[nH]c(=O)n(Cc3ccc(CN4CCN(C(=O)CO)CC4)s3)c2n1` [Example 47], less than 50 nM.
Turning to `CSc1nc2c(N)nc3ccccc3c2n1Cc1ccc(CNC(C)C)cc1` [Example 188], the EC50 fell in the range of 50 to 100 nM.
Under `N#CCCSc1nc2c(N)nc3ccccc3c2n1Cc1ccc(CN2CCCC2)cc1` [Example 177] stands 50 to 100 nM; under `Nc1nc2ccccc2c2c1nc(SCCC(F)(F)F)n2Cc1ccc(CN2CCCC2)cc1` [Example 181], less than 50 nM; under `CCCCOc1nc(N)c2[nH]c(=O)n(Cc3ccc(CN4CCCC4)s3)c2n1` [Example 43, 6-amino-2-butoxy-9-((5-(pyrrolidin-1-ylmethyl)thien-2-yl)methyl)-7,9-dihydro-8H-purin-8-one], less than 50 nM.
`COc1cc(CN2CC(O)C2)ccc1Cn1c(SC)nc2c(N)nc3ccccc3c21` [Example 244]: the EC50 is 50 to 100 nM.
Consider `CCSc1nc2c(N)nc3ccccc3c2n1Cc1ccc(CN2CCCC2)cc1` [Example 156], for which the EC50 is less than 50 nM.
Under `Nc1nc2ccccc2c2c1[nH]c(=S)n2Cc1ccc(CN2CCCC2)cc1` [Example 155, 4-amino-1-(4-(pyrrolidin-1-ylmethyl)benzyl)-1,3-dihydro-2H-imidazo[4,5-c]quinoline-2-thione] stands less than 50 nM; under `Nc1nc2ccccc2c2c1nc(SCC(F)F)n2Cc1ccc(CN2CCCC2)cc1` [Example 179], less than 50 nM.
For `CCCCOc1nc(N)c2c(n1)CN(Cc1ccc(Cn3ccnc3)c(C)c1)C(=O)N2` [Example 76], the EC50 fell in the range of 50 to 100 nM.
Under `CSc1nc2c(N)nc3ccccc3c2n1Cc1ccc(OCCN(C)C)nc1` [Example 223] stands 50 to 100 nM; under `COc1cc(CNC(C)C)ccc1Cn1c(SC)nc2c(N)nc3ccccc3c21` [Example 241], 50 to 100 nM; under `CCCCOc1nc(N)c2c(n1)N(Cc1ccc(Oc3ccc(CNC)cc3)cc1)CC(=O)N2` [Example 252, 4-amino-2-butoxy-8-(4-(4-((methylamino)methyl)phenoxy)benzyl)-7,8-dihydropteridin-6(5H)-one], less than 50 nM.
Take `CCSc1nc2c(N)nc3ccccc3c2n1Cc1ccc(CN(C)C)cc1` [Example 190]: the concentration giving a half-maximal response (EC50) fell in the range of 50 to 100 nM.
Under `CSc1nc2c(N)nc3ccccc3c2n1Cc1ccc(CN2CCNCC2)cc1` [Example 213] stands 50 to 100 nM.
Regarding `CCCCOc1nc(N)c2[nH]c(=O)n(Cc3ccc(CN4CCN(C(=O)CN)CC4)s3)c2n1` [Example 45, 6-amino-2-butoxy-9-((5-((4-glycylpiperazin-1-yl)methyl)thien-2-yl)methyl)-7,9-dihydro-8H-purin-8-one], the EC50 is less than 50 nM.
The same measure for `CSc1nc2c(N)nc3ccccc3c2n1Cc1ccc(CN2CCNCC2)s1` [Example 220]: 50 to 100 nM.
The same measure for `CCCCOc1nc(N)c2[nH]c(=O)n(Cc3ccc(CN4CCN(C(=O)COC)CC4)s3)c2n1` [Example 48]: less than 50 nM.
